Assay results as given in ChEMBL document CHEMBL1201862, “PubChem BioAssay data set” (2004).
Activity calls are given as the source filed them.

How the values were obtained:
[1] = microbe, parasite or virus in culture; type: functional; settings: Mycobacterium tuberculosis
[2] = A Cell Based Secondary Assay to Explore Cytotoxicity in HepG2 Cells of Compounds that Modulate Mycobacterium tuberculosis in Media Containing Glycerol versus Media without Glycerol (2).; type: functional
[3] = A Cell Based Secondary Assay to Explore Cytotoxicity in THP-1 Cells of Compounds that Modulate Mycobacterium tuberculosis in Media Containing Glycerol versus Media without Glycerol (2).; type: functional
[4] = Vero cell cytotoxicity, cytotoxicity control for M. tuberculosis inhibitor project, purified and synthesized samples, set 3 (AID 504684); type: functional
[5] = fluconazole-exposed Candida albicans growth modulators – fluorescence, retest, confirmation (AID 2467); type: functional, cell-based
[6] = target: ATP-dependent molecular chaperone HSP82 (Candida albicans (strain WO-1) (Yeast), UniProt C4YTQ8); experiment: steroid-induced GRE reporter decrease in yeast – S. cerevisiae, luminescence, Hsp90 inhibitor project, dose response (AID 2400); type: functional, cell-based;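 also: beta-galactosidase luminescence from glucocorticoid response element reporter as proxy for Hsp90 function; inhibitor potency where signal loss means Hsp90 inhibition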
[7] = system: INS1; experiment: INS-1E survival protection against cytokine death – cell-based, luminescence, retest, dose response (AID 449756); type: functional; settings: Rattus norvegicus;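 also: cell death triggered by IL-1 beta plus TNF-alpha plus IFN-gamma mixture; protective hits raise ATP signal compared with cytokine alone wells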
[8] = NIH-3T3 fibroblast cytotoxicity, dose response, cytotoxicity control, cell-based, fluorescence, Alamar Blue, secondary assay (AID 2327); type: functional;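 also: NIH-3T3 mouse fibroblasts cultured with fluconazole at 8 µg/mL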
[9] = target: T1, Serine/threonine-protein phosphatase (Candida dubliniensis (strain CD36 / CBS 7987 / NCPF 3949 / NRRLY-17841) (Yeast), UniProt B9W6M3); experiment: blockers of CaCl2-induced CDRE-lacZ signaling – S. cerevisiae, luminescence, secondary, dose response (AID 2388); type: functional, cell-based;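 also: yeast reporter cells carrying a calcineurin-responsive lacZ construct stimulated with calcium chloride; luminescent beta-galactosidase reporter signal in whole cells rather than isolated phosphatase activity; potency for inhibition where a drop in reporter signal means calcineurin blockade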
T1 sequence (B9W6M3 whole entry): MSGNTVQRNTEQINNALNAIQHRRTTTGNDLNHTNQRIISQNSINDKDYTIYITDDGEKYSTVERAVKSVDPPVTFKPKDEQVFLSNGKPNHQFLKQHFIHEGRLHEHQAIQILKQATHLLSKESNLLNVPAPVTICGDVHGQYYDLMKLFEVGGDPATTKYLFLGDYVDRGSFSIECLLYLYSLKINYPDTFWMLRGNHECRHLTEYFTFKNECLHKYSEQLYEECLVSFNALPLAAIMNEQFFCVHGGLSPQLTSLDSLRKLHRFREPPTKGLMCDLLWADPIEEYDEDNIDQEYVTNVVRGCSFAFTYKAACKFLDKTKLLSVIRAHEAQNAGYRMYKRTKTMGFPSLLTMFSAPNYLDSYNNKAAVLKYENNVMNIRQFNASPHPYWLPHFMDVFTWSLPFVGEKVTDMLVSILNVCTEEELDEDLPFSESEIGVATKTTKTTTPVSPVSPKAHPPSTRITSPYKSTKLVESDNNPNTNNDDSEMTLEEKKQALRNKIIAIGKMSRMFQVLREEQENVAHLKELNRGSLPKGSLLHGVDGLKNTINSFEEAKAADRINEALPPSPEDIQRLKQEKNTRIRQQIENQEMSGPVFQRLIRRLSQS

[10] = target: T2, Sentrin-specific protease 6 (Homo sapiens, UniProt Q9GZR1); experiment: SAR Analysis of small molecule inhibitors of Sentrin-specific protease 6 (SENP6) using a Luminescent assay. [Related pubchem assays (depositor defined):AID2582, AID2599]; type: functional
T2 sequence (Q9GZR1 whole entry): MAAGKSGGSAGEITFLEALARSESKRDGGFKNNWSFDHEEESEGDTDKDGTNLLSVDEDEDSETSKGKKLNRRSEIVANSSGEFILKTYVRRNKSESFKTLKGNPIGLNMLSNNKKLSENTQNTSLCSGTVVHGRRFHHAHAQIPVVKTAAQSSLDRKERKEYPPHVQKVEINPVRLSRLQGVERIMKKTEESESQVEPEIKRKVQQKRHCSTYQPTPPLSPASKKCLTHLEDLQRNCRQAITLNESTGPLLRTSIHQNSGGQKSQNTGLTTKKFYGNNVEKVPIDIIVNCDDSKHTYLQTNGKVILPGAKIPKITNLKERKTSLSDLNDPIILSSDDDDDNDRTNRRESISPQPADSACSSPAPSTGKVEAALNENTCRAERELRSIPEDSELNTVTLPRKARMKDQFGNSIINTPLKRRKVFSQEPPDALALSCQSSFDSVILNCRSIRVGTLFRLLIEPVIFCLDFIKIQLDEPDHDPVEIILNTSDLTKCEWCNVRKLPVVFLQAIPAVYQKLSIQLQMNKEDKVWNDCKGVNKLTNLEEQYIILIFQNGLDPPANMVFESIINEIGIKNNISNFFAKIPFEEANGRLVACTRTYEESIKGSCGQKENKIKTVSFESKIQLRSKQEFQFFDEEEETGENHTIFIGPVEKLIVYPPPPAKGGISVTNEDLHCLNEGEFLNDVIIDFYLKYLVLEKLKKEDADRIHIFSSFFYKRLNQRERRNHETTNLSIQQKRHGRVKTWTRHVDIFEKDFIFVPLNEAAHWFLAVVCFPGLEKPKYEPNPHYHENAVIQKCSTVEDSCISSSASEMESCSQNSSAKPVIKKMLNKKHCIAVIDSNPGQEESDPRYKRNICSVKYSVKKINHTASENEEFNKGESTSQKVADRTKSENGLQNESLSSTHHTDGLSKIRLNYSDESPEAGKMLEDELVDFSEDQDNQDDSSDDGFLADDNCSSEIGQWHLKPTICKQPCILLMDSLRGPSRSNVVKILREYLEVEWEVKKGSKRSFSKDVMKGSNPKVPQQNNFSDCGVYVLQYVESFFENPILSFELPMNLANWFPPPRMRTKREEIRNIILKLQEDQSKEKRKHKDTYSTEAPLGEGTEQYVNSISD

[11] = target: T3, Caspase-3 (Homo sapiens, UniProt P42574); experiment: SAR Analysis of small molecule inhibitors of Sentrin-specific proteases (SENPs) using a Caspase-3 Selectivity assay. [Related pubchem assays (depositor defined):AID2540, AID2599, AID434973, AID489001]; type: functional
T3 sequence (P42574 whole entry): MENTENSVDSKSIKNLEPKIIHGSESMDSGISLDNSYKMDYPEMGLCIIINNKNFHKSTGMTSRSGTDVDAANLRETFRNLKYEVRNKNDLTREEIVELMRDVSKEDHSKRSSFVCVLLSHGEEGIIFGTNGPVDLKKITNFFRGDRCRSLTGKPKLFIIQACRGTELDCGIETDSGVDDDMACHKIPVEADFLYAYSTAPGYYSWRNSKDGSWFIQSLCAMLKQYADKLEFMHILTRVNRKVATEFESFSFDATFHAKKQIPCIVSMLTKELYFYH

[12] = target: T4, Sentrin-specific protease 8 (Homo sapiens, UniProt Q96LD8); experiment: inhibition of human SENP8 cleavage activity – biochemical, luminescence, SAR follow-up (AID 504501); type: functional
T4 sequence (Q96LD8 whole entry): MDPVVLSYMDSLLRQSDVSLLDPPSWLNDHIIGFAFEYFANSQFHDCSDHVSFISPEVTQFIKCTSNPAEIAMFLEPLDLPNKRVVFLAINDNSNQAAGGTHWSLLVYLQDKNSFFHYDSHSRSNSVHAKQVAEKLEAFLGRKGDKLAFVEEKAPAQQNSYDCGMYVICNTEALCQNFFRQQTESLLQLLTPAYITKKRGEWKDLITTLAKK

[13] = target: T5, Sentrin-specific protease 7 (Homo sapiens, UniProt Q9BQF6); experiment: inhibition of human SENP7 cleavage activity – biochemical, luminescence, SAR follow-up (AID 504497); type: functional
T5 sequence (Q9BQF6 whole entry): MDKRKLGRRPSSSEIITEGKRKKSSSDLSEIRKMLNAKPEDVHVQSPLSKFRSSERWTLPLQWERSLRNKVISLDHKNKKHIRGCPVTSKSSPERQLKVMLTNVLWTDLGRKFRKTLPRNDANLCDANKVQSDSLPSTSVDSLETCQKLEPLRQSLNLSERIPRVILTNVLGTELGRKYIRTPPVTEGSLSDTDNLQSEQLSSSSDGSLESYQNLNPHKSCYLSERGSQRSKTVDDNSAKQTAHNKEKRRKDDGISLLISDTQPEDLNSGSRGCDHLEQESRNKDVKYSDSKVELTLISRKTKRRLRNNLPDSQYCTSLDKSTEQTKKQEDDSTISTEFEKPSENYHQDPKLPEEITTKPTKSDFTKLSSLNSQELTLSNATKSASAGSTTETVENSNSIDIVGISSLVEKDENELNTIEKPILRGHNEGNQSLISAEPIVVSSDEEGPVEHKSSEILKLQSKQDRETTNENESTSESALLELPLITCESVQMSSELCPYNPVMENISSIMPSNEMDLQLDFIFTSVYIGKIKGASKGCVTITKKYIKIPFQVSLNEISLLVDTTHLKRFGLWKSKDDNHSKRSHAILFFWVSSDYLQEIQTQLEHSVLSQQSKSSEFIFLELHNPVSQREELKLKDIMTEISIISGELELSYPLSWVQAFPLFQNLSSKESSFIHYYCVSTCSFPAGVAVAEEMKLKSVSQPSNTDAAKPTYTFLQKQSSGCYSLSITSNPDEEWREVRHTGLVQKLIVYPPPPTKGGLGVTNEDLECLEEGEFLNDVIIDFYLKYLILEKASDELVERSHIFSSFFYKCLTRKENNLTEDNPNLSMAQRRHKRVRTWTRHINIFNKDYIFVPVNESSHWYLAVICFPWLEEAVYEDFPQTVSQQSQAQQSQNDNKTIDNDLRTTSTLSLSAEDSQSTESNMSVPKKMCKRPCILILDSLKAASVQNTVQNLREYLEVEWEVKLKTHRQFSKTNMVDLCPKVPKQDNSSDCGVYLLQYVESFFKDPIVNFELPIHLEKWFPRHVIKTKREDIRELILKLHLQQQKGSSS

[14] = target: T5, Sentrin-specific protease 7; experiment: inhibition of human SENP7 cleavage activity – biochemical, luminescence, set 2, SAR follow-up (AID 588600); type: functional
[15] = target: T3, Caspase-3; experiment: inhibition of recombinant caspase-3 activity – biochemical, luminescence, set 2, selectivity assay for SENP protease inhibitor project, SAR follow-up (AID 588599); type: functional
[16] = target: T4, Sentrin-specific protease 8; experiment: inhibition of sentrin protease 8 – biochemical, luminescence, set 2, SAR follow-up (AID 588601); type: functional
[17] = target: T2, Sentrin-specific protease 6; experiment: inhibition of human SENP6 catalytic domain – biochemical, luminescence, set 2, SAR follow-up (AID 588598); type: functional

Chain of ATP-dependent molecular chaperone HSP82 (C4YTQ8 whole entry): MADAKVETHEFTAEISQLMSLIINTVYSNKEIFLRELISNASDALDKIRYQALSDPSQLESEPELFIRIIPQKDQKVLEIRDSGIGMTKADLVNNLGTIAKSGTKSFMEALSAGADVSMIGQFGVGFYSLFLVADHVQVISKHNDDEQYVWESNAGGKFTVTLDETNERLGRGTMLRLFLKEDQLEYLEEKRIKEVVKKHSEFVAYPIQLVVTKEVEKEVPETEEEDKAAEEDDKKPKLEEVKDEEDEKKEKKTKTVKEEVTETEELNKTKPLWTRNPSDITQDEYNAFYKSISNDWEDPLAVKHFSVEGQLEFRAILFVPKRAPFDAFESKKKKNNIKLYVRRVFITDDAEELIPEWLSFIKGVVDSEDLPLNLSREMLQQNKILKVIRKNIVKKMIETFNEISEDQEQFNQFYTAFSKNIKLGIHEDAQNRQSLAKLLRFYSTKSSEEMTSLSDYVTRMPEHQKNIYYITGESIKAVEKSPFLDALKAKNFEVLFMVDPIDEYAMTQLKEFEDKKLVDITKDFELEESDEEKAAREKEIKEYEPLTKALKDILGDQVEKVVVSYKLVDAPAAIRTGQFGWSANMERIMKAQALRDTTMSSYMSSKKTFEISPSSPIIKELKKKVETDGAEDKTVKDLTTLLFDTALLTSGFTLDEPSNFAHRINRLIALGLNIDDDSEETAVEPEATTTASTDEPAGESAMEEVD

Structure (SMILES): Cc1ccc2ccc3ccc(C)nc3c2n1 [NEOCUPROINE]
- CC50 [1]: 36.4 µM (active)
- CC50 [2]: 0.21 µM (active)
- CC50 [3]: < 0.2 µM (active)
- CC50 [4]: 1.23 µM (active)
- EC50 [5]: 0.133 µM (active)
- EC50 [6]: > 150 µM (inactive)
- AC50 [7]: < 0.195 µM (active)
- EC50 [8]: 147 µM (active)
- EC50 [9]: > 180 µM (inactive)

Structure (SMILES): CCS(=O)(=O)c1cccc(C(=O)Nc2nc3ccc(Br)cc3s2)c1
- IC50 [10]: > 99 µM (inactive)
- IC50 [11]: > 99 µM (inactive)
- IC50 [12]: > 99 µM (inactive)
- IC50 [13]: > 99 µM (inactive)

Structure (SMILES): Cc1[nH]c2ccccc2c1C(=O)C(=O)NCc1cccnc1
- IC50 [14]: > 99 µM (inactive)
- IC50 [15]: > 99 µM (inactive)
- IC50 [16]: > 99 µM (inactive)
- IC50 [17]: > 99 µM (inactive)
